Converted amounts (≈) assume the structure as drawn.
Experiments:
[1] = tested on: Human immunodeficiency virus 1; test: Antiviral activity against Human immunodeficiency virus 1 IIIB infected MT4 cells assessed as inhibition of virus-induced cytopathic effect after 4 days by MTT assay; format: functional, organism-based; settings: MT4, 96 h
Coxsackievirus B4 [2] = test: Antiviral activity against Human coxsackievirus B4 infected Vero cells assessed as inhibition of virus-induced cytopathicity; format: functional, organism-based; settings: Enterovirus B
HEL = test: Cytostatic against Homo sapiens (human) HEL cells assessed as alteration in cell morphology by microscopy; format: ADME, cell-based
[3] = tested on: Human immunodeficiency virus 2; test: Antiviral activity against Human immunodeficiency virus type 2 (ISOLATE ROD) infected MT4 cells assessed as inhibition of virus-induced cytopathic effect after 4 days by MTT assay; format: functional, organism-based; settings: Human immunodeficiency virus 2, ISOLATE ROD, MT4, 96 h
Aspergillus niger = test: Antimicrobial activity against Aspergillus niger after 7 days by tube dilution method; format: functional
[4] = tested on: Mammalian orthoreovirus 1; test: Antiviral activity against Mammalian orthoreovirus 1 infected Vero cells assessed as inhibition of virus-induced cytopathicity by microscopy; format: functional, organism-based; settings: Mammalian orthoreovirus 1, Vero
Staphylococcus aureus = test: Antimicrobial activity against Staphylococcus aureus after 24 hr by tube dilution method; format: functional
Escherichia coli = test: Antimicrobial activity against Escherichia coli after 24 hr by tube dilution method; format: functional
Bacillus subtilis = test: Antimicrobial activity against Bacillus subtilis after 24 hr by tube dilution method; format: functional
Sindbis virus = test: Antiviral activity against Sindbis virus infected Vero cells assessed as inhibition of virus-induced cytopathicity; format: functional, organism-based
[5] = tested on: Vesicular stomatitis virus; test: Antiviral activity against Vesicular stomatitis virus infected human HeLa cells assessed as inhibition of virus-induced cytopathicity by microscopy; format: functional, organism-based
Human respirovirus 3 = test: Antiviral activity against Human parainfluenza virus 3 infected Vero cells assessed as inhibition of virus-induced cytopathicity by microscopy; format: functional, organism-based; settings: Human respirovirus 3, Vero
[6] = tested on: Human herpesvirus 3 strain Oka vaccine; test: Antiviral activity against Human herpesvirus 3 strain Oka vaccine OKA 07-1 (Varicella zoster virus ) infected in human HEL cells assessed as inhibition of virus-induced cytopathicity; format: functional, organism-based; settings: Human alphaherpesvirus 3, HEL
Human alphaherpesvirus 2 = test: Antiviral activity against Human herpesvirus 2 strain G infected human HEL cells assessed as inhibition of virus-induced cytopathicity by microscopy; format: functional, organism-based; settings: Human alphaherpesvirus 2, strain G
Human alphaherpesvirus 1 [7] = test: Antiviral activity against TK(-) aciclovir-resistant Human herpesvirus 1 strain KOS infected in human HEL cells assessed as inhibition of virus-induced cytopathicity; format: functional, organism-based; settings: Human alphaherpesvirus 1, KOS
Vaccinia virus = test: Antiviral activity against Vaccinia virus infected human HEL cells assessed as inhibition of virus-induced cytopathicity by microscopy; format: functional, organism-based; settings: Orthopoxvirus vaccinia
Human alphaherpesvirus 1 [8] = test: Antiviral activity against Human herpesvirus 1 strain KOS infected human HEL cells assessed as inhibition of virus-induced cytopathicity by microscopy by microscopy; format: functional, organism-based; settings: Human alphaherpesvirus 1, KOS
Punta Toro virus = test: Antiviral activity against Punta Toro virus infected Vero cells assessed as inhibition of virus-induced cytopathicity; format: functional, organism-based
Candida albicans = test: Antimicrobial activity against Candida albicans after 48 hr by tube dilution method; format: functional
[9] = Cytotoxicity against Homo sapiens (human) HEL cells assessed as alteration in cell morphology by microscopy; format: cell-based; settings: for MCC: read-out: MTC
[10] = tested on: Human herpesvirus 5 strain AD169; test: Antiviral activity against Human herpesvirus 5 strain AD169 Davis infected human HEL cells assessed as inhibition of virus-induced cytopathicity by microscopy; format: functional, organism-based; settings: Human betaherpesvirus 5, Davis
[11] = tested on: Respiratory syncytial virus; test: Antiviral activity against Respiratory syncytial virus infected human HeLa cells assessed as inhibition of virus-induced cytopathicity by microscopy; format: functional, organism-based
[12] = Cytotoxicity against Homo sapiens (human) MT4 cells after 4 days by MTT assay; format: cell-based
[13] = Cytotoxicity against Chlorocebus aethiops (African green monkey) Vero cells assessed as alteration in cell morphology by microscopy; format: cell-based; settings: chlorocebus sabaeus, read-out: MTC
Coxsackievirus B4 [14] = test: Antiviral activity against Human coxsackievirus B4 infected human HeLa cells assessed as inhibition of virus-induced cytopathicity by microscopy; format: functional, organism-based; settings: Enterovirus B
[15] = Cytotoxicity against Homo sapiens (human) HeLa cells assessed as alteration in cell morphology by microscopy; format: cell-based; settings: read-out: MTC

Row | Structure (SMILES) | EC50 [1] | EC50 (Coxsackievirus B4 [2]) | Activity (HEL) | EC50 [3] | -logMIC (Aspergillus niger) | EC50 [4] | -logMIC (Staphylococcus aureus) | -logMIC (Escherichia coli) | -logMIC (Bacillus subtilis) | EC50 (Sindbis virus) | EC50 [5] | EC50 (Human respirovirus 3) | EC50 [6] | EC50 (Human alphaherpesvirus 2) | EC50 (Human alphaherpesvirus 1 [7]) | EC50 (Vaccinia virus) | EC50 (Human alphaherpesvirus 1 [8]) | EC50 (Punta Toro virus) | -logMIC (Candida albicans) | CC50 [9] | also measured
1 | O=C(NN=C1CCCCCC1)c1ccncc1 [N'-CYCLOHEPTYLIDENEISONICOTINOHYDRAZIDE] | > 86 mg/L | > 100 mg/L | Toxic | > 86 mg/L | 1.66 | > 100 mg/L | 1.66 | 1.36 | 1.66 | > 100 mg/L | > 100 mg/L | > 100 mg/L | > 100 mg/L | > 100 mg/L | > 100 mg/L | > 100 mg/L | > 100 mg/L | > 100 mg/L | 1.66 | > 100 mg/L | MCC [9]: > 100 µg/mL; EC50 [10]: > 100 mg/L; EC50 [11]: > 100 mg/L; CC50 at 96 h [12]: 86 mg/L (≈ 372 µM); MCC [13]: > 100 µg/mL; EC50 (Coxsackievirus B4 [14]): > 100 mg/L; MCC [15]: > 100 µg/mL
2 | C/C(=N\NC(=O)c1ccncc1)c1ccc([N+](=O)[O-])cc1 | > 77 mg/L | > 20 mg/L | Toxic | > 77 mg/L | 2.36 | > 20 mg/L | 2.06 | 2.36 | 2.06 | > 20 mg/L | > 20 mg/L | > 20 mg/L | > 20 mg/L | > 100 mg/L | > 100 mg/L | > 100 mg/L | > 100 mg/L | > 20 mg/L | 2.36 | 54 mg/L (≈ 190 µM) | MCC [9]: > 100 µg/mL; EC50 [10]: > 20 mg/L; EC50 [11]: > 20 mg/L; CC50 at 96 h [12]: 77 mg/L (≈ 271 µM); MCC [13]: 100 µg/mL; EC50 (Coxsackievirus B4 [14]): > 20 mg/L; MCC [15]: 100 µg/mL
3 | C/C(=N\NC(=O)c1ccncc1)c1cccc([N+](=O)[O-])c1 | > 63 mg/L | > 4 mg/L | Toxic | > 63 mg/L | 2.36 | > 4 mg/L | 2.06 | 2.36 | 2.06 | > 4 mg/L | > 4 mg/L | > 4 mg/L | > 4 mg/L | > 20 mg/L | > 20 mg/L | > 20 mg/L | > 20 mg/L | > 4 mg/L | 2.36 | 13 mg/L (≈ 45.7 µM) | MCC [9]: 100 µg/mL; EC50 [10]: > 20 mg/L; EC50 [11]: > 4 mg/L; CC50 at 96 h [12]: 63 mg/L (≈ 222 µM); MCC [13]: 20 µg/mL; EC50 (Coxsackievirus B4 [14]): > 4 mg/L; MCC [15]: 20 µg/mL

Source: ChEMBL document CHEMBL3045530, “Synthesis, antimycobacterial, antiviral, antimicrobial activities, and QSAR studies of isonicotinic acid-1-(substituted phenyl)-ethylidene/cycloheptylidene hydrazides” (Med Chem Res, 2012)
